Data reported in patent US20100075435A1, “BIOTINYLATED THYROXINE” (priority 2008, published 2010).

Tested on: T4-streptavidin (Biotin-PEG4-T4 streptavidin conjugate) immobilized flow cell Fc3
Experiment: SPR bivalent kinetic analysis of antibodies on T4-streptavidin immobilized flow cell (Biocore 3000, CM5 chip)
Assay type: binding
Settings: comparison of antibodies 1 and 2
Method: The biotinylated thyroxine obtained in Example 1 (PEG n=4) (Biotin-PEG4-T4) (1.2 mg) was dissolved in 189.8 microliters of DMSO.
A 98 microliter quantity of 1 mg/mL of streptavidin and 1.33 microliters of the DMSO solution (5 mM) of Biotin-PEG4-T4 obtained above were dissolved in 0.67 microliters of HBSN. Here, the streptavidin:biotin ratio was 1:4 (mole ratio).
A Biocore 3000 (Biocore) was employed as the surface plasmon resonance (SPR) device. CM5 sensor chips were employed, and four flow cells (Fc 1 to 4) were prepared according to the following procedure. The flow rate was 10 microliters/min.
A flow of a 70 microliter quantity of a mixed solution of equal quantities of EDC (1-ethyl-3-(3-dimethylaminopropyl)carbodiimide) and NHS (N-hydroxysuccinimide) was run (7 minutes), after which a flow of a 70 microliter quantity of a solution of streptavidin in […] (0.2 mg/mL, pH 5.0) was run (7 minutes). Subsequently, a flow of ethanolamine was similarly run.
A flow of a 70 microliter quantity of mixed solution of equal quantities of EDC and NHS was run (7 minutes), after which a flow of a 70 microliter solution of T4-streptavidin in […] (0.2 mg/mL, pH 5.0) was run (7 minutes). […]
It was necessary to conduct interaction analysis at the minimum level of immobilization within the range over which the S/N ratio could be calculated. […]

COC(=O)C(Cc1cc(I)c(Oc2cc(I)c(O)c(I)c2)c(I)c1)NC(=O)CCOCCOCCOCCOCCNC(=O)CCCCC1SCC2NC(=O)NC21 (stereo not shown) [Example 1, Biotinylated Thyroxine (PEG n=4)]
binding rates: about the same binding rates
